Test results from patent US4696920A, “Certain 2-substituted 1,3-propylidenediphosphonate derivatives, pharmaceutical compositions containing them and their use as antihypertensive agents” (priority 1984, dated 1987).
Entries after “also recorded” stand apart in the source; their conditions may differ.

Columns and labels:
[1] = test system: isolated rat atrium (atrium rate); test: Chronotropic activity in isolated rat atrium; set-up: species or system rat (male SHR, Okamoto-Aoki); conditions: 5.0 × 10^-6 M, mean ± SEM, read-out: Decrease in atrium rate (% pretest)
Method: Spontaneously hypertensive male rats (SHR) (Okamoto-Aoki strain) were anesthetized with Pentobarbital (Nembutal Abbott, 60 mg/kg, i.p.). The hearts were quickly excised and both atria were dissected free from adjacent cardiac tissues. The atria were immediatly placed in a 50 ml Krebs-Ringer bath with the following composition (mM): NaCl, (120.0); KCl, (5.63); CaCl2, (2.0); MgCl2, (2.10); NaHCO3, (25.0); Glucose, (9.7) (pH 7.4). The solution was continuously bubbled with a O2 /CO2 mixture (95/5) and maintained at 37±1° C. The atrium was fixed to an optical displacement transducer (IITC, USA) under a resting tension of 1 g in order to measure atrial rate. The preparation was allowed to equilibrate for 40 min then cumulative dose-response curves were determined for each test compound (0.5-5 μMole/l). Maximum effect was normally obtained within 30-40 min. for each concentration.
Stock solutions of the 1,3-diphosphonates were generally prepared in 0.9% saline and water insoluble compounds were prepared in 50% ethanol. […] When tested at the concentration of 5.0×10^-6 M a decrease in atrium rate of more than 5% was considered as significant.
All data are presented as % decrease of initial atrium rate (mean values±SEM). A potent negative chronotropic effect was found with all compounds tested (table 3).

[2] = test system: rat trachea contraction induced by KCl depolarization; test: KCl-induced rat trachea contraction; set-up: species or system rat (male SHR, Okamoto-Aoki)
Method: Spontaneously hypertensive male rats (SHR) Okamoto-Aoki Strain, weighing 300-400 g were used in this study. They were killed by bleeding after Pentobarbital anesthesia (Nembutal, Abbott Co, 40 mg/kg). Their entire trachea was quickly removed and dissected free of fat and connective tissue in Krebs-Ringer solution. A strip (4 mm×40 mm), obtained by spirally cutting the trachea, was immediately suspended in a 50 ml Krebs-Ringer solution and continuously bubbled with a O2 /CO2 (95/5) mixture. Bath temperature was maintained at 37±1° C. The composition (mM) of the Krebs-Ringer solution modified by Nghiem, was as follows: NaCl, (118.0); KCl, (4.7); CaCl2, (2.5); MgCl2, (1.18); NaHCO3, (12.5); KH2 P04, (1.18); glucose, (5.5) in bidistilled water (pH 7.4). Each strip was equilibrated under initial tension (1.5-2 g) for 1-2 hours and the bath solution changed every 30 min. A contractile or relaxant response was isometrically measured with a force-displacement transducer (Ugo-Basile) and recorded on a polygraph (Beckman).
After equilibration, KCl was added to the bath at 65 mM final concentration. This concentration produced maximum trachea contraction. Under these conditions, a plateau phase showing a tonic sustained contraction was reached within 30 minutes. Drugs were added 30 minutes after the plateau phase has been reached (final concentration=1.0 μM). […] Recordings of the residual trachea contraction were made 40 minutes after drug addition to the bathing fluid. The initial KCl induced contraction was taken as the maximum KCl response (100%). Results were expressed as % of maximal contraction. Nifedipine, Prenylamine, Flunarizine and Diltiazem were used as reference standards to validate this assay.
All 1,3-diphosphonates and drugs were dissolved in saline (0.9% NaCl) except when water insoluble, then the compounds were dissolved in 2% ethanol. The final concentration of ethanol used has been shown not to interfere with the assay.
Results are expressed as mean values±SEM, the Student's t-test was used for statistical analysis.

[3] = test system: mean blood pressure in rat; test: Acute intravenous hypotensive activity in anesthetized rats; type: in vivo, rat (male Wistar); conditions: Rattus norvegicus, iv, read-out: Decrease in mean blood pressure (% pretest)
Method: Male Wistar rats were anesthetized with Pentobarbital (Nembutal, 60 mg/kg i.p.) and heparinized (5 mg/kg i.p.). After tracheotomy the right carotid was cannulated (catheter PE 50); blood pressure was measured with a pressure transducer (Statham P 23 db) and recorded on a polygraph (Beckman).
Animals received 0.5 and 1.5 mg/kg of the test compounds. Less than 100 μl of test compounds dissolved in 0.9% saline were injected in the jugular vein. Highly water insoluble compounds were suspended in 2% Tween-80. Injection of the vehicle alone had no detectable hypotensive effect.
Results presented are expressed as percent decrease in initial mean blood pressure (Mean±SEM).

[4] = test system: calcium channel binding site for [^3 H]-Nitrendipine (rat brain membranes); test: [^3 H]-Nitrendipine binding to rat brain membranes; set-up: species or system rat (male Wistar); conditions: Table 1a
Method: (§1) Diltiazem hydrochloride was a generous gift from Goedecke A. G.
Suitable dilutions were made in 50 mM Tris-HCl buffer (pH 7.4) containing 150 mM NaCl and 1 mM CaCl2. The ethanol concentration in the final assay never exceeded 0.1%.
(§2) The purity of the radioligand and of the various agents tested was monitored by thin layer chromatography on silica gel plates.
(§3) The following procedure was adapted from Bellemann et al (Proc. Nat. Acad. Sci. 80, 2356, 1983), and Gould et al (Proc. Nat. Acad. Sci. 79, 3656, 1982).
(§4) Adult male Wistar rats weighing 250-300 g were anesthetized with carbon dioxide prior to decapitation. The brain was removed then immersed in ice-cold 0.32M sucrose and washed 2-3 times with fresh solution. Cerebral cortex was minced and homogenized (Potter-Elvehjem homogenizer) in 10 volumes of ice-cold sucrose solution. The homogenate was centrifuged (4° C.) at 1000×g for 15 minutes. The resulting supernatant was then centrifuged at 90000×g (30 minutes) and the pellet was washed twice with 20 ml ice-cold 50 mM Tris-HCl pH 7.4.
(§5) The final pellet was resuspended in 50 mM Tris-HCl pH 7.4/150 mM NaCl/1 mM CaCl2 to give a protein concentration of 4 mg/ml.
(§6) The membrane suspension was kept on ice until used. Binding assays were performed in subdued light to prevent dihydropyridine breakdown. Membrane protein (400 μg/tube) was incubated in 50 mM Tris-HCl buffer (pH 7.4)/150 mM NaCl/1 mM CaCl2 with the indicated concentrations of radioligand and test compounds or known calcium antagonists, in a total volume of 2 ml. After the indicated time intervals, the reaction was terminated by rapid filtration through Whatman GF/B glass fiber filters (2.4 cm diameter) on a Millipore filter holder. The assay tube was rinsed with 2 ml ice-cold 50 mM Tris-HCl pH (7.4) and the precipitate was further washed with 2×5 ml of the same buffer.
(§7) Filters were dried under a heat lamp and were extracted with 10 ml of liquid scintillation cocktail (Toluene/Triton X-100, 2/1 containing 4 g Omnifluor/1) prior to tritium determination at 48% counting efficiency.
(§8) Assays were performed in duplicate or triplicate.
(§9) Data were expressed as percent specific [^3 H]-Nitrendipine binding relative to the established control value.
(§10) Compound activity in the [^3 H]-Nitrendipine binding assay was evaluated by using the following criteria:
(§11) 1. [^3 H]-Nitrendipine binding at 1.0 μM compound final concentration was either below 95% or above 105% of the control value determined in absence of compound.
2. […] This ratio is indicative of a dose response relationship within the compound concentration range tested, when the value differs appreciably from 1.0.

[5] = test system: drug receptor sites associated with calcium channels; conditions: known calcium antagonists; cited from earlier work
[6] = test system: blood pressure in hypertensive rats; test: Oral hypotensive activity in hypertensive rats (tail cuff); type: in vivo, rat (spontaneously hypertensive, SHR); conditions: Table 5
Method: Some selected compounds were given orally to conscious SHR rats and blood pressure was monitored using the tail cuff method. A marked and sustained hypotensive activity was measured in all treated rats. Results are given 2 hours post dose (Table 5). These studies illustrate the obvious potential use of orally administered 1,3-diphosphonates for the clinical treatment of hypertension in man.

[7] = test system: [^3 H]-PN-200 110 (dihydropyridine) binding site of calcium channel, rat brain membranes; test: [^3 H]-PN-200 110 binding to rat brain membranes; set-up: species or system rat (male Wistar); conditions: for Specifically bound [^3 H]-PN-200 110 % of control value: compound concentration 1.0 μM; for Specifically bound [^3 H]-PN-200 110 % of control value / Bound ^3 H at 1.0 μM / Bound ^3 H at 0.1 μM: Table 1b; for Bound ^3 H at 1.0 μM / Bound ^3 H at 0.1 μM: ratio of [^3 H]-PN-200 110 bound at 1.0 and 0.1 μM compound; for potency in [^3 H]-PN200 110 binding (in words): text on Table 1b
Method: as §1
Water insoluble compounds were dissolved in absolute ethanol to give 10 mM or 2.5 mM stock solutions. Suitable dilutions were made in 50 mM Tris-HCl buffer (pH 7.4) containing 150 mM NaCl and 1 mM CaCl2. The ethanol concentration in the final assay never exceeded 0.1%.
as §2, §3, §4, §5, §6, §7, §8, §9, §10, §11
2. The ratio obtained by dividing the amount of specifically found [^3 H]-Nitrendipine at 1.0 μM compound final concentration by the value obtained at 0.1 μM test compound, was smaller than 0.9 or greater than 1.1. This ratio is indicative of a dose response relationship within the compound concentration range tested, when the value differs appreciably from 1.0.
Note: In some experiments [^3 H]-PN200 110, a new and commercially available specific dihydropyridine was used instead of [^3 H]-Nitrendipine.

Row | SMILES | effect on [^3 H]-Nitrendipine binding (in words) [5] | oral hypotensive activity (in words) [6] | Specifically bound [^3 H]-PN-200 110 % of control value [7] | Bound ^3 H at 1.0 μM / Bound ^3 H at 0.1 μM [7] | potency in [^3 H]-PN200 110 binding (in words) [7] | other results
1 | CC(C)OP(=O)(CC(Cc1ccccc1)CP(=O)(OC(C)C)OC(C)C)OC(C)C [Compound 55, Tetraisopropyl 2-benzyl-1,3-propylidenephosphonate] | – | – | – | – | – | inhibition at 5 µM [1]: 17.5 ± 4.6%; activity at 1 µM ([2]; Rattus norvegicus, 40 min, read-out: Contraction (% max.)): 73 ± 1%; activity on KCl-induced trachea contraction (in words) ([2]; final concentration 1.0 μM): potent pharmacological activity; inhibition in vivo at 0.5 mg/kg [3]: 28.2 ± 0.7%; inhibition in vivo at 1.5 mg/kg [3]: 31.1 ± 6.4%; modulation of [^3 H]-Nitrendipine binding (in words) [4]: activators; Specifically bound [^3 H]-Nitrendipine % of control value ([4]; compound concentration 1.0 μM): 156 % of control value; Bound ^3 H at 1.0 μM / Bound ^3 H at 0.1 μM ([4]; ratio of [^3 H]-Nitrendipine bound at 1.0 and 0.1 μM compound): 1.292
2 | COc1ccc(CCN(C)CCCC(C#N)(c2ccc(OC)c(OC)c2)C(C)C)cc1OC (stereo not drawn) [Verapamil] | inhibitors; also recorded: reduce [^3 H]-Nitrendipine binding affinity | – | – | – | – | –
3 | CCCCOP(=O)(CC(CCOc1ccc(Br)cc1)CP(=O)(OCCCC)OCCCC)OCCCC [Compound 91] | – | decrease blood pressure as markedly as the marketed calcium antagonists used as references | 15 % of control value | 0.420 | – | –
4 | C(=C\c1ccccc1)/CN1CCN(C(c2ccccc2)c2ccccc2)CC1 [Cinnarizine] | reduce [^3 H]-Nitrendipine binding affinity | – | – | – | – | –
5 | CCCCOP(=O)(CC(CCOc1ccc(F)cc1)CP(=O)(OCCCC)OCCCC)OCCCC [Compound 89] | – | decrease blood pressure as markedly as the marketed calcium antagonists used as references | 6 % of control value | 0.310 | as potent as Nifedipine | –
6 | CCCCOP(=O)(CC(CCOc1ccc(OC)cc1)CP(=O)(OCCCC)OCCCC)OCCCC [Compound 92] | – | decrease blood pressure as markedly as the marketed calcium antagonists used as references | 0 % of control value | 0.000 | as potent as Nifedipine | –
